Measurements reported in US20240124396A1, “AMINO LIPID COMPOUND, PREPARATION METHOD THEREFOR, AND USE THEREOF” (SHENZHEN SHENXIN BIOTECHNOLOGY CO., LTD., priority 2021, published 2024).

How the values were obtained:
[1] = test system: Luciferase mRNA (Fluc mRNA); assay: Luciferase mRNA in vivo delivery performance of lipid nanoparticles prepared from amino lipid compounds; design: species or system BALB/c mice; conditions: LNP with Fluc mRNA, 0.5 mg/kg intramuscular injection, mice, total fluorescence intensity imaged 6 hours after dosing
Experimental: Evaluation of Luciferase mRNA In Vivo Delivery Performance of Lipid Nanoparticles Prepared from Amino Lipid Compounds • Preparation process: The delivery vector in the present invention, DSPC, cholesterol, and PEG2000-DMG were mixed and dissolved in absolute ethanol in a molar ratio of 50:10:38.5:1.5. Luciferase mRNA (Fluc mRNA) was dissolved in a sodium acetate solution (50 mM, pH=4.0). Two microinjection pumps were used, and the ratio of ethanol solution to sodium acetate solution (50 mM, pH=4.0) was controlled to be 1:3. A crude solution of lipid nanoparticles was prepared in a microflow channel chip, then dialyzed for 6 hours with 1×PBS (phosphate buffer solution) at a controlled temperature of 4° C. by using a dialysis cassette (Fisher, MWCO 20,000), and filtered with a 0.22 μm microporous filter membrane before use. The mass ratio of the amino lipid compound to luciferase mRNA (Fluc mRNA) was about 10:1. • Animal preparation: 6-week-old male BALB/c mice with body weights of about 20 g were selected, and fed in an SPF-grade feeding room. Animal experiments were strictly carried out according to the guidelines of the national health institution and the requirements of animal ethics. • In vivo delivery: 3 mice were randomly selected per group and injected with lipid nanoparticles at a dose of 0.5 mg/kg by intramuscular injection. After 6 hours, 200 μL of 10 mg/mL potassium […] was injected into each mouse via the tail vein, and after 10 minutes, the mice were placed under an in vivo imaging system (IVIS-200, Xenogen), and the total fluorescence intensity of each mouse was observed and recorded by photographing.
Table 1 provides the expression intensities of Fluc mRNA delivered by the intramuscular injection administration of the representative amino lipid compounds with DLin-MC3 as the control (two batches of tests in total).

[2] = test system: Ovalbumin mRNA (OVA mRNA); assay: Ovalbumin mRNA in vivo delivery and immunization performance of lipid nanoparticles (ELISA IgG titer); design: species or system BALB/c mice; conditions: LNP with OVA mRNA, 0.5 mg/kg subcutaneous injection Day 0 and Day 7, blood on the 21st day, FIG. 1 and FIG. 2
Experimental: Evaluation of Ovalbumin mRNA In Vivo Delivery and Immunization Performance of Lipid Nanoparticles (Delivery Vector) Prepared from Amino Lipid Compounds • Preparation process: The amino lipid compound described in the present invention, DSPC, cholesterol, and PEG2000-DMG were mixed and dissolved in absolute ethanol in a molar ratio of 50:10:38.5:1.5. Ovalbumin mRNA (OVA mRNA) was dissolved in a sodium acetate solution (50 mM, pH=4.0). Two microinjection pumps were used, and the ratio of ethanol solution to sodium acetate solution (50 mM, pH=4.0) was controlled to be 1:3. A crude solution of lipid nanoparticles was prepared in a microflow channel chip, then dialyzed for 6 hours with 1×PBS at a controlled temperature of 4° C. by using a dialysis cassette (Fisher, MWCO 20,000), and filtered with a 0.22 μm microporous filter membrane before use. The mass ratio of the amino lipid compound to ovalbumin mRNA (OVA mRNA) was about 10:1. • Animal preparation: 6-week-old male BALB/c mice with body weights of about 20 g were selected, and fed in an SPF-grade feeding room. Animal experiments were strictly carried out according to the guidelines of the national health institution and the requirements of animal ethics. • In vivo delivery: 3 mice were randomly selected per group and injected with lipid nanoparticles at a dose of 0.5 mg/kg by subcutaneous injection (Day 0). After 7 days, the same amount was used for another boost (Day 7). Tail vein blood was taken on the 21st day for the serological analysis. DLin-MC3 was used as the control. • Enzyme-linked immunosorbent assay (ELISA): a flat-bottomed 96-well plate (Nunc) was pre-coated with a concentration of OVA protein of 0.5 μg protein per well in 50 mM carbonate buffer (pH 9.6), and was allowed to stay overnight at 4° C., and then blocked with 5% glycine. Anti-serums, proteins obtained from immune animals, were diluted from 10^2 to 10^6 with PBS-0.05% Tween (PBS-T) at pH 7.4, added to the wells and incubated at room temperature, and placed at 37° C. for 1 hour. Horseradish peroxidase (HRP) coupled goat anti-mouse IgG was used for labeling in PBS-T-1% BSA at a dilution rate of 1:10,000. After the addition of the HRP substrate, the optical density was determined at a wavelength, and the absorbance at 450 nm was measured in an ELISA microplate reader (Bio-Rad).
It will be appreciated that modifications and variations are possible to those skilled in the art in light of the above teachings, and it is intended that the present invention cover all such modifications and variations as fall within the scope of the appended claims.

Structure (SMILES) | Fluorescence intensity ([1]; batch 1) | IgG antibody titers compared with the DLin-MC3 control group [2] | Fluorescence intensity ([1]; batch 2)
CCCCCCCCCCCCCCCCN1C(=O)CC[C@H](C(=O)OCCN2CCOCC2)[C@H]1CCCCCCCCCCC (racemic) [Compound 3] | 5.1E+06 | – | –
CCCCCCCCCCCCCCCCN1C(=O)CC[C@H](C(=O)OCCCN2CCN(C)CC2)[C@H]1CCCCCCCCC (racemic) [Compound 4] | 2.8E+06 | – | –
CCCCCCCCCCCCCCC[C@@H]1[C@@H](C(=O)OCCN2CCCCC2)CCC(=O)N1CCCCCCCCCCCCC (racemic) [Compound 6] | 3.1E+05 | – | –
CCCCCCCCCCCCCCCCC[C@@H]1[C@@H](C(=O)OCC2CCN(C)CC2)CCC(=O)N1CCCCCCCCCCCC (racemic) [Compound 7] | 6.1E+05 | – | –
CCCCCCCCCCCCCCCCN1C(=O)C[C@H](C(=O)NCCN2CCCCC2)[C@H]1CCCCCCCC (racemic) [Compound 9] | 6.1E+06 | – | –
CCCCCCCCCCCCCCCCC[C@@H]1[C@@H](C(=O)NCCN2CCN(C)CC2)CC(=O)N1CCCCCC (racemic) [Compound 10] | 8.1E+05 | – | –
CCCCCCCC/C=C\CCCCCCCCN1C(=O)C[C@H](C(=O)NCCCN(C)C)[C@H]1CCCCCCCCCCC (racemic) [Compound 11] | 2.1E+06 | – | –
CCCCCCCC/C=C\CCCCCCC[C@@H]1[C@@H](C(=O)OCCN2CCCC2)CC(=O)N1CCCCCCCCCCCCCCCC (racemic) [Compound 15] | 2.8E+07 | – | –
CCCCCCCC/C=C\CCCCCCC[C@@H]1[C@@H](C(=O)OCCN2CCCCC2)CC(=O)N1CCCCCCCCCCCC (racemic) [Compound 16] | 1.4E+07 | – | –
CCCCC/C=C\C/C=C\CCCCCCC[C@@H]1[C@@H](C(=O)OCCCN(C)C)CC(=O)N1CCCCCCCCCCCCC (racemic) [Compound 19] | 2.1E+06 | – | –
CCCCC/C=C\C/C=C\CCCCCCC[C@@H]1[C@@H](C(=O)OCCN2CCCC2)CC(=O)N1CCCCCCCCCCCCCCCC (racemic) [Compound 20] | 5.2E+06 | – | –
CCCCCCCCCCCCN1C(=O)C[C@H](C(=O)NCCN(C)C)[C@H]1CCCCCCCCCCC (racemic) [Compound N12A12C4D1] | 2.9E+07 | significantly superior | –
CCCCCCCCCCCCN1C(=O)C[C@H](C(=O)OCCCN(C)C)[C@H]1CCCCCCCCCCC (racemic) [Compound N12A12C4O2] | 2.8E+06 | comparable | –
CCCCC/C=C\C/C=C\CCCCCCC[C@@H]1[C@@H](C(=O)OCCN2CCCCC2)CC(=O)N1CCCCCCCCCCCC (racemic) [Compound N12A20C4O10] | 2.7E+06 | significantly superior | –
CCCCCCCCCCCCCCCCN1C(=O)CC[C@H](C(=O)OCCN2CCCCC2)[C@H]1CCCCCCCCC (racemic) [Compound N16A10C5O10] | 4.5E+06 | significantly superior | –
CCCCCCCC/C=C\CCCCCCCCN1C(=O)C[C@H](C(=O)OCCN2CCCCC2)[C@H]1CCCCCCCCC (racemic) [Lipid 1] | – | – | 8.8E+06
CCCCCCCC/C=C\CCCCCCCCN1C(=O)C[C@H](C(=O)OCCCN(C)C)[C@H]1CCCCCCCCCCCCCC (racemic) [Lipid 2] | – | – | 4.9E+06
CCCCCCCC/C=C\CCCCCCCCN1C(=O)C[C@H](C(=O)OCCN2CCCC2)[C@H]1CCCCCCCCCCCCCCCCC (racemic) [Lipid 3] | – | – | 2.9E+07
CCCCC/C=C\C/C=C\CCCCCCCCN1C(=O)C[C@H](C(=O)OCCN2CCCC2)[C@H]1CCCCCCCCCCCCCC (racemic) [Lipid 5] | – | – | 7.6E+06
CCCCC/C=C\C/C=C\CCCCCCCCN1C(=O)C[C@H](C(=O)OCCCN2CCN(C)CC2)[C@H]1CCCCCCCCCCCC (racemic) [Lipid 6] | – | – | 3.7E+06
CCCCCCCC/C=C\CCCCCCC[C@@H]1[C@@H](C(=O)OCCN2CCCC2)CC(=O)N1CCCCCCCCCCCCCCCC (racemic) [Lipid 7] | – | – | 4.8E+07
CCCCCCCC/C=C\CCCCCCC[C@@H]1[C@@H](C(=O)OCCN2CCCCC2)CC(=O)N1CCCCCCCCCCCC (racemic) [Lipid 8] | – | – | 2.3E+07
CCCCC/C=C\C/C=C\CCCCCCCC[C@@H]1[C@@H](C(=O)OCCN2CCCCC2)CC(=O)N1CCCCCCCCCCCC (racemic) [Lipid 9] | – | – | 4.2E+06
CCCCC/C=C\C/C=C\CCCCCCCC[C@@H]1[C@@H](C(=O)OCC2CCN(C)CC2)CC(=O)N1CCCCCCCCCCCCC (racemic) [Lipid 10] | – | – | 3.6E+06
CCCCC/C=C\C/C=C\CCCCCCCCC(CCCCCCCC/C=C\C/C=C\CCCCC)OC(=O)CCCN(C)C [Dlin-MC3, reference compound] | 7.7E+06 | – | 6.9E+06
